Measurements reported in patent publication US10045999B2, “Nutritional composition for the stimulation of muscle protein synthesis” (N. V. Nutricia, priority 2010, dated 2018).
Marks after values point to notes of the source that are not given here.

Test system: C2C12 myotubes
Experiment: Protein synthesis rate (FSR) in C2C12 myotubes after pretreatment with 1,25(OH)2 Vitamin D3, with or without leucine and insulin
Type: cell-based, mouse
Conditions: for increase in muscle protein synthesis rate: C2C12 myotubes treated only with vitamin D3, with leucine alone, or with both; for change (%) in protein synthesis rate vs no pretreatment with vitamin D3: 72 h pretreatment
Description: An experimental in vitro study is performed to evaluate the synergistic or additional action of leucine and vitamin D on intracellular pathways regulating protein synthesis in muscle cells.
C2C12 mouse myoblasts are obtained from the American Type Culture Source Collection (no. CRL-1772). Myoblasts are cultured at 37° C. in an atmosphere of 5% CO2 in grown medium consisting of Dulbecco's modified Eagle's medium (DMEM) supplemented with 10% foetal calf serum and antibiotics. Myotube C2C12 differentiation is induced by withdrawing foetal calf serum from confluent cells and adding 10 μg/ml insulin, 5 μg/ml transferrin and 2% horse serum.
Confluent C2C12 myotubes are treated with vehicles alone or with different doses of 1,25(OH)2 D3. Subsequently, the cells are deprived of horse serum by incubation in a serum-free medium for the two remaining hours. During this deprivation period, different amounts of leucine and insulin are added to the medium before harvesting cells.
Medium with or without leucine supplementation are used to assess the synergistic or additional action of leucine and vitamin D on intracellular pathways regulating protein synthesis (Akt, mTOR) and/or on direct measure of protein synthesis.
Protein synthesis rate (FSR) in C2C12 myotubes after 72 h pretreatments with 0, 1 or 10 nm of 1,25(OH)2 Vitamin D3 is depicted in FIG. 1.
FIG. 1: Protein synthesis rate (FSR) in C2C12 myotubes after 72 h pretreatments with 0, 1 or 10 nm of 1,25(OH)2 Vitamin D3.

## C=C1/C(=C\C=C2/CCC[C@]3(C)[C@@H]([C@H](C)CCCC(C)(C)O)CC[C@@H]23)C[C@@H](O)C[C@@H]1O [Vitamin D, 1,25-dihydroxycholecalciferol]
  increase in muscle protein synthesis rate: 14.3%
C2C12 myotubes, vitamin D3 dose 1 or 10 nM
  effect on muscle protein synthesis (in words): can stimulate muscle protein synthesis independently of leucine presence
[Vitamin D] = 1 nM, Ins + leu, vs [Vit D] = 0 Ins + leu
  change (%) in protein synthesis rate vs no pretreatment with vitamin D3: 9.8* %
[Vitamin D] = 1 nM, No stim, vs [Vit D] = 0 No stim
  change (%) in protein synthesis rate vs no pretreatment with vitamin D3: 14.0* %
[Vitamin D] = 10 nM, Ins + leu, vs [Vit D] = 0 Ins + leu
  change (%) in protein synthesis rate vs no pretreatment with vitamin D3: 14.3* %
[Vitamin D] = 10 nM, No stim, vs [Vit D] = 0 No stim
  change (%) in protein synthesis rate vs no pretreatment with vitamin D3: 14.3* %

## CC(C)C[C@H](N)C(=O)O [leucine, L-leucine]
  increase in muscle protein synthesis rate: 10.7%
